Measurements published in ChEMBL document CHEMBL3608220, “Isolation and structure elucidation of bioactive compounds from the roots of the Tunisian Ononis angustissima L” (Bioorg Med Chem Lett, 2015).
Converted amounts (≈) assume the structure as drawn. The source made the active and inactive calls. The calls are words filed in the database; no cut-off is given here.

Columns and labels:
[1] = Antioxidant activity assessed as DPPH radical scavenging activity after 30 mins; assay type: physicochemical
[2] = Antioxidant activity assessed as reduction of Fe3+ to Fe2+ after 20 mins; assay type: physicochemical
[3] = Antioxidant activity assessed as ABTS radical scavenging activity after 6 mins; assay type: physicochemical
PC-12 [4] = test: (§1) Neuroprotective activity against amyloid beta (25 to 35)-induced toxicity in rat PC12 cells assessed as increase in cell viability at 30 uM after 24 hrs by MTT assay relative to control; assay type: functional
[5] = Cytotoxicity against rat PC12 cells assessed as cell viability at 30 uM after 24 hrs by MTT assay; assay type: cell-based; settings: pc-12, 24 h
[6] = Cytotoxicity against rat PC12 cells assessed as cell viability at 75 uM after 24 hrs by MTT assay relative to control; assay type: cell-based; settings: pc-12, 24 h
[7] = Cytotoxicity against rat PC12 cells assessed as cell viability at 150 uM after 24 hrs by MTT assay relative to control; assay type: cell-based; settings: pc-12, 24 h
PC-12 [8] = test: (§2) Neuroprotective activity against amyloid beta (25 to 35)-induced toxicity in rat PC12 cells assessed as increase in cell viability at 75 uM after 24 hrs by MTT assay relative to control; assay type: functional
[9] = as §1; assay type: functional, PC-12
[10] = as §2; assay type: functional, PC-12
PC-12 [11] = test: Neuroprotective activity against amyloid beta (25 to 35)-induced toxicity in rat PC12 cells assessed as increase in cell viability after 24 hrs by MTT assay; assay type: functional, cell-based

| IC50 [1] | IC50 [2] | IC50 [3] | SMILES | Activity (PC-12 [4]) | Activity [5] | Activity [6] | Activity [7] | Activity (PC-12 [8]) | Activity [9] | Activity [10] | Activity (PC-12 [11]) |
| --- | --- | --- | --- | --- | --- | --- | --- | --- | --- | --- | --- |
| 34.17 µg/mL (≈ 79.4 µM) | 57.21 µg/mL (≈ 133 µM) | 71.3 µg/mL (≈ 166 µM) | COc1ccc(-c2coc3cc(O[C@@H]4O[C@H](CO)[C@@H](O)[C@H](O)[C@H]4O)ccc3c2=O)cc1 [ONONIN] |  |  |  |  |  |  |  |  |
| 19.53 µg/mL (≈ 65.5 µM) | 38.52 µg/mL (≈ 129 µM) | 28.29 µg/mL (≈ 94.8 µM) | O=C1C=C(c2ccc(O)cc2O)C(Cc2ccc(O)cc2)O1 (centres undefined) | inactive | Non-toxic | Toxic | Toxic |  |  |  |  |
| 21.43 µg/mL (≈ 46.5 µM) | 39.81 µg/mL (≈ 86.5 µM) | 46.72 µg/mL (≈ 101 µM) | O=C1C=C(c2ccc(O)cc2O[C@@H]2O[C@H](CO)[C@@H](O)[C@H](O)[C@H]2O)C(Cc2ccc(O)cc2)O1 (some centres undefined) | inactive | Non-toxic | Non-toxic | Toxic | inactive |  |  |  |
| 25.67 µg/mL (≈ 54.1 µM) | 46.93 µg/mL (≈ 98.9 µM) | 61.39 µg/mL (≈ 129 µM) | COc1ccc(C2=CC(=O)OC2Cc2ccc(O)cc2)c(O[C@@H]2O[C@H](CO)[C@@H](O)[C@H](O)[C@H]2O)c1 (some centres undefined) | inactive | Non-toxic | Toxic | Toxic |  |  |  |  |
| 20.45 µg/mL (≈ 44.2 µM) |  |  | COc1cc(O[C@@H]2O[C@H](CO)[C@@H](O)[C@H](O)[C@H]2O)c(O)cc1-c1coc2cc(O)ccc2c1=O |  |  |  |  |  |  |  |  |
| 24.48 µg/mL (≈ 86.1 µM) |  |  | Oc1ccc2c(c1)OC[C@H]1c3cc4c(cc3O[C@@H]21)OCO4 [MAACKIAIN] |  | Non-toxic | Non-toxic | Toxic |  | 5% | 15% | Dose-dependent effect |
| 25.93 µg/mL (≈ 48.7 µM) | 64.31 µg/mL (≈ 121 µM) | 60.64 µg/mL (≈ 114 µM) | O=C(O)CC(=O)OC[C@H]1O[C@@H](Oc2ccc3c(c2)OCC2c4cc5c(cc4OC32)OCO5)[C@H](O)[C@@H](O)[C@@H]1O (some centres undefined) |  |  |  |  |  |  |  |  |
| 45.91 µg/mL (≈ 170 µM) | 82.37 µg/mL (≈ 305 µM) | 86.29 µg/mL (≈ 319 µM) | COc1ccc2c(c1)O[C@H]1c3ccc(O)cc3OC[C@@H]21 |  | Non-toxic | Non-toxic | Toxic |  | 18% | 30% | Dose-dependent effect |
| 43.51 µg/mL (≈ 162 µM) | 62.57 µg/mL (≈ 233 µM) | 77.42 µg/mL (≈ 289 µM) | COc1ccc(-c2coc3cc(O)ccc3c2=O)cc1 [FORMONONETIN] |  |  |  |  |  |  |  |  |
| 9.23 µg/mL (≈ 41.9 µM) | 41.64 µg/mL (≈ 189 µM) |  | Cc1cc(C(C)(C)C)c(O)c(C(C)(C)C)c1 [BUTYLATED HYDROXYTOLUENE] |  |  |  |  |  |  |  |  |
| 28.06 µg/mL (≈ 62.9 µM) | 70.37 µg/mL (≈ 158 µM) | 63.21 µg/mL (≈ 142 µM) | OC[C@H]1O[C@@H](Oc2ccc3c(c2)OCC2c4cc5c(cc4OC32)OCO5)[C@H](O)[C@@H](O)[C@@H]1O (some centres undefined) | inactive | Non-toxic | Toxic | Toxic |  |  |  |  |

| SMILES | IC50 [1] | IC50 [2] | IC50 [3] | Activity (PC-12 [4]) | Activity [5] | Activity [6] | Activity [7] | Activity (PC-12 [8]) | Activity [9] | Activity [10] | Activity (PC-12 [11]) |
| --- | --- | --- | --- | --- | --- | --- | --- | --- | --- | --- | --- |
| O=c1c(O)c(-c2ccc(O)c(O)c2)oc2cc(O)cc(O)c12 [QUERCETIN] | 4.89 µg/mL (≈ 16.2 µM) |  | 6.94 µg/mL (≈ 23 µM) |  |  |  |  |  |  |  |  |
